ChEMBL document CHEMBL5230096, “A comprehensive insight on the recent development of Cyclic Dependent Kinase inhibitors as anticancer agents” (Eur J Med Chem, 2020)

Tests used:
[1] = tested on: A549; test: Antiproliferative activity against human A549 cells assessed as reduction in cell viability by MTT assay; format: functional, cell-based
[2] = tested on: Caco-2; test: Antiproliferative activity against human Caco-2 cells assessed as reduction in cell viability by MTT assay; format: functional, cell-based
[3] = tested on: HepG2; test: Antiproliferative activity against human HepG2 cells assessed as reduction in cell viability by MTT assay; format: functional, cell-based
[4] = tested on: MCF7; test: Antiproliferative activity against human MCF7 cells assessed as reduction in cell viability by MTT assay; format: functional, cell-based
[5] = biological target: CDK9/cyclin T1 (Homo sapiens, UniProt P50750); test: Inhibition of CDK9/cyclin T1 (unknown origin) assessed as inhibition constant; format: protein-complex assay
[6] = tested on: Panel NCI-60 (60 carcinoma cell lines); test: Antiproliferative activity against human Panel NCI-60 (60 carcinoma cell lines) assessed as reduction in cell viability at 10 uM; format: functional
[7] = biological target: T1, CDK2/Cyclin A2 (Homo sapiens, UniProt P24941); test: Inhibition of CDK2/Cyclin A2 (unknown origin) incubated for 40 mins in presence of ATP by Kinase-Glo Plus luminescence kinase assay; format: protein-complex assay
[8] = biological target: T2, CDK2/Cyclin A2 (Homo sapiens) (UniProt P24941+P20248); test: Inhibition of CDK2/Cyclin A2 (unknown origin) at 10 uM incubated for 40 mins in presence of ATP by Kinase-Glo Plus luminescence kinase assay; format: protein-complex assay
[9] = biological target: Cyclin-dependent kinase 2/cyclin E (Homo sapiens, UniProt P24941); test: Inhibition of CDK2/Cyclin E (unknown origin) expressed in baculovirus infected Sf9 cells using histone H1 as substrate in presence of gamma32P-ATP by scintillation counter analysis
[10] = biological target: Cyclin-dependent kinase 1 (Homo sapiens, UniProt P06493); test: Inhibition of CDK1 (unknown origin) assessed as inhibition constant
[11] = tested on: Bel-7402; test: Antitumor activity against human Bel-7402 cells assessed as reduction in cell viability by MTT assay; format: functional, cell-based
[12] = biological target: Cyclin-dependent kinase 4 (Homo sapiens, UniProt P11802); test: Inhibition of CDK4 (unknown origin) by kinase assay
[13] = tested on: A549; test: Antitumor activity against human A549 cells assessed as reduction in cell viability by MTT assay; format: functional, cell-based
[14] = tested on: LS174T; test: Antitumor activity against human LS174T cells assessed as reduction in cell viability by MTT assay; format: functional, cell-based
[15] = tested on: HeLa; test: Antitumor activity against human HeLa cells assessed as reduction in cell viability by MTT assay; format: functional, cell-based
[16] = biological target: CDK7/Cyclin H/MNAT1 (Homo sapiens, UniProt P50613); test: Inhibition of CDK7/Cyclin H/MNAT1 (unknown origin) using 5-FAM-YSPTSPSYSPTSPSYSPTSPSKKK as substrate in presence of ATP by spectroscopic analysis; format: protein-complex assay
[17] = tested on: HeLa; test: Antiproliferative activity against human HeLa cells assessed as reduction in cell viability incubated for 3 days by MTT assay; format: functional, cell-based; settings: 72 h
[18] = biological target: T1, CDK2/Cyclin A2; test: Inhibition of CDK2/cyclin A2 (unknown origin) expressed in baculovirus expression system incubated for 1 hr using Ser/Thr12 Peptide as substrate in presence of ATP by Z-LYTE kinase assay
[19] = tested on: A549; test: Antiproliferative activity against human A549 cells assessed as reduction in cell viability incubated for 72 hrs by MTT assay; format: functional, cell-based; settings: A549, 72 h
[20] = tested on: HCT-116; test: Antiproliferative activity against human HCT-116 cells assessed as reduction in cell viability incubated for 72 hrs by MTT assay; format: functional, cell-based; settings: HCT-116, 72 h
[21] = tested on: HL-60; test: Antiproliferative activity against human HL-60 cells assessed as reduction in cell viability incubated for 72 hrs by MTT assay; format: functional, cell-based; settings: HL-60, 72 h
[22] = tested on: MCF7; test: Antiproliferative activity against human MCF7 cells assessed as reduction in cell proliferation incubated for 48 hrs by Sulfo-Rhodamine-B stain (SRB) assay; format: functional, cell-based; settings: MCF7, 48 h
[23] = biological target: T3, Cyclin-dependent kinase 2 (Homo sapiens, UniProt P24941); test: Inhibition of human CDK2 using TMB as substrate preincubated for 210 mins followed by substrate addition and measured after 15 to 25 mins by spectrophotometric analysis
[24] = tested on: Human immunodeficiency virus 1; test: Antiviral activity against HIV1; format: functional, organism-based
[25] = tested on: MDA-MB-453; test: Antiproliferative activity against human MDA-MB-453 cells assessed as cell growth inhibition incubated for 72 hrs by MTT assay; format: functional
[26] = tested on: MV4-11; test: Antiproliferative activity against human MV4-11 cells assessed as cell growth inhibition incubated for 72 hrs by resazurin assay; format: functional
[27] = AUC in Balb/c mouse at 10 mg/kg,po and measured upto 24 hrs by LC/MS/MS analysis; format: ADME, organism-based; design: time < 24 hrs, dose 10 mg/kg, route po; settings: in vivo
[28] = AUC in Wistar rat at 20 mg/kg,po and measured upto 24 hrs by LC/MS/MS analysis; format: ADME, organism-based; design: time < 24 hrs, dose 20 mg/kg, route po; settings: in vivo
[29] = tested on: MCF7; test: Anticancer activity against human MCF7 cells assessed as reduction in cell viability incubated for 48 hrs by MTT assay; format: functional, cell-based; settings: MCF7, 48 h
[30] = tested on: HCT-116; test: Anticancer activity against human HCT-116 cells assessed as reduction in cell viability incubated for 48 hrs by MTT assay; format: functional, cell-based; settings: HCT-116, 48 h
[31] = tested on: MCF7; test: Cytotoxicity against human MCF7 cells assessed as reduction in cell viability by MTT assay; format: functional, cell-based
[32] = tested on: MCF7; test: Antiproliferative activity against human MCF7 cells assessed reduction in cell proliferation; format: functional, cell-based
[33] = tested on: B16-F10; test: Antiproliferative activity against mouse B16-F10 cells assessed reduction in cell proliferation; format: functional, cell-based
[34] = biological target: Histone deacetylase; test: Inhibition of HDAC (unknown origin); format: protein assay, Homo sapiens
[35] = biological target: T3, Cyclin-dependent kinase 2
[36] = biological target: T4, Protein cereblon/Cyclin-dependent kinase 9 (Homo sapiens) (UniProt P50750+Q96SW2); test: Protac activity at CRBN/CDK9 in human HCT-116 cells assessed as induction of CDK9 degradation at 10 uM incubated for 6 hrs by Western blot analysis; format: cell-based
[37] = biological target: T4, Protein cereblon/Cyclin-dependent kinase 9 (Homo sapiens); test: Protac activity at CRBN/CDK9 in human HCT-116 cells assessed as induction of CDK9 degradation at 20 uM incubated for 6 hrs by Western blot analysis; format: cell-based
[38] = biological target: T2, CDK2/Cyclin A2 (Homo sapiens); test: Inhibition of CDK2/Cyclin A2 (unknown origin) at 10 uM by Kinase-Glo Plus luminescence kinase assay; format: protein-complex assay
[39] = Cytotoxicity against human L02 cells assessed cell growth inhibition incubated for 2 days by MTT assay; format: toxicity, cell-based
[40] = tested on: NCI-H522; test: Cytotoxicity against human NCI-H522 cells assessed cell growth inhibition incubated for 2 days by MTT assay; format: functional, cell-based; settings: NCI-H522, 48 h
[41] = Cytotoxicity against human U87 cells assessed cell growth inhibition incubated for 2 days by MTT assay; format: functional, cell-based, U-87MG ATCC; settings: U-87 MG, 48 h
[42] = biological target: T3, Cyclin-dependent kinase 2; test: Inhibition of CDK2 (unknown origin) incubated for 10 min using histone H1 as substrate in presence of gamma32P-ATP by radioactive assay
[43] = biological target: Cyclin-dependent kinase 9 (Homo sapiens, UniProt P50750); test: Inhibition of CDK9 (unknown origin) using TMB as substrate by spectrophotometric analysis
Chain of Cyclin-dependent kinase 9 (P50750 whole entry): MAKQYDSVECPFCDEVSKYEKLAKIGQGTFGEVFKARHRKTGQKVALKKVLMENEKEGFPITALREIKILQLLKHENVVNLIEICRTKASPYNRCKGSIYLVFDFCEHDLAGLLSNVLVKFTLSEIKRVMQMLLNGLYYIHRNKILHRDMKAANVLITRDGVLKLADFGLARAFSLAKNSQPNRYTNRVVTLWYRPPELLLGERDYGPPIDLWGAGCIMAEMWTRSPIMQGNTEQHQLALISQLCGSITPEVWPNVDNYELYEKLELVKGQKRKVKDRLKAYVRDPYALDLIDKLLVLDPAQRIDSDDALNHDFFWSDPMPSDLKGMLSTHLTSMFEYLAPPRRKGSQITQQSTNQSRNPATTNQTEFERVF

Chain of CDK9/cyclin T1 (O60563 whole entry): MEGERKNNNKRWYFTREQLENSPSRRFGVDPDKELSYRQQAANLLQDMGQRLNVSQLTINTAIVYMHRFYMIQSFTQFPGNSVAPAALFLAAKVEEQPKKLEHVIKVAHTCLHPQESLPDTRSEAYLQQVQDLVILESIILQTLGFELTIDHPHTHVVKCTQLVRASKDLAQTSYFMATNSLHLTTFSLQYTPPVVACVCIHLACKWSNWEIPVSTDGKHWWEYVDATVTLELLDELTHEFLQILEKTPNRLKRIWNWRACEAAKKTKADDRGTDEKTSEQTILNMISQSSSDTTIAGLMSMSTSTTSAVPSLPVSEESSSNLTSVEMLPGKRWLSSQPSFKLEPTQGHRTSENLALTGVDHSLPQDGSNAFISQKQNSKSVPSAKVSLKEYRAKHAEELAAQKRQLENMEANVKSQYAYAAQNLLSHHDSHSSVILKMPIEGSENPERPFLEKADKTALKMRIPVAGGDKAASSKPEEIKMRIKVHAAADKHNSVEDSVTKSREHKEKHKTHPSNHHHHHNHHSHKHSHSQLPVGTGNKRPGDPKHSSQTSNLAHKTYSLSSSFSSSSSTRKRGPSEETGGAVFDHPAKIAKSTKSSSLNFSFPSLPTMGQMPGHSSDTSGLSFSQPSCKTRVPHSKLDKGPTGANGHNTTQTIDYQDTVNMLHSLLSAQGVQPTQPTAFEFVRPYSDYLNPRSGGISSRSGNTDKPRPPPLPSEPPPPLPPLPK
Chain of CDK9/cyclin T1 (P50750 whole entry): as the sequence (P50750 whole entry) above
T4 sequence (P50750 whole entry, looked up): as the sequence (P50750 whole entry) above
T4 sequence (Q96SW2 whole entry, looked up): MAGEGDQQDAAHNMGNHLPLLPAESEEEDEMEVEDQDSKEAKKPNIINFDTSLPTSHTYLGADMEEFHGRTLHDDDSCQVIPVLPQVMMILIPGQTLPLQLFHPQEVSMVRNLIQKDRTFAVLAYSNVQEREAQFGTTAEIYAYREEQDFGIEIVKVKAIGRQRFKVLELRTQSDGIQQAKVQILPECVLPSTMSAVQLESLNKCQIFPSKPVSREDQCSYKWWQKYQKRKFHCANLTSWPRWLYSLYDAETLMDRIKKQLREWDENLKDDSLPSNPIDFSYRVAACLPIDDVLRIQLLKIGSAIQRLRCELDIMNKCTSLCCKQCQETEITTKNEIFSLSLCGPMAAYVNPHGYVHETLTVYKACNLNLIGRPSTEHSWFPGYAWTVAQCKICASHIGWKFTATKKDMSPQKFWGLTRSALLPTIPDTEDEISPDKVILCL
Chain of Cyclin-dependent kinase 4 (P11802 whole entry): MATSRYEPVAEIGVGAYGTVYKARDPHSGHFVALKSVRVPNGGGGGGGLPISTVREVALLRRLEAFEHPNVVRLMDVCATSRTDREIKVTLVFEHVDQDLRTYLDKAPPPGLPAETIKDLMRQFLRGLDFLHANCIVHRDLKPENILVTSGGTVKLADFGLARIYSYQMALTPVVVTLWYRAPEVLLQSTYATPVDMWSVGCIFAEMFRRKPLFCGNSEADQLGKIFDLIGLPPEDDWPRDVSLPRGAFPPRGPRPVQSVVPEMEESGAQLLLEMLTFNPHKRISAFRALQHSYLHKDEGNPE
Chain of Cyclin-dependent kinase 1 (P06493 whole entry): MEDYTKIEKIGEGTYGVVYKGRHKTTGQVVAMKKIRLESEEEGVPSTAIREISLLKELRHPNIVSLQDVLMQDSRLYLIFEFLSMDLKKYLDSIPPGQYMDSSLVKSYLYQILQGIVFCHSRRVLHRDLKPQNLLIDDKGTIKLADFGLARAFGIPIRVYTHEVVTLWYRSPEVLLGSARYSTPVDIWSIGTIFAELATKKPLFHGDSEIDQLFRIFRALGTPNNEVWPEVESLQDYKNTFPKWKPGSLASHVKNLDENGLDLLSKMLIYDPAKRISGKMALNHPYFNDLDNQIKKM
Chain of CDK7/Cyclin H/MNAT1 (P51946 whole entry): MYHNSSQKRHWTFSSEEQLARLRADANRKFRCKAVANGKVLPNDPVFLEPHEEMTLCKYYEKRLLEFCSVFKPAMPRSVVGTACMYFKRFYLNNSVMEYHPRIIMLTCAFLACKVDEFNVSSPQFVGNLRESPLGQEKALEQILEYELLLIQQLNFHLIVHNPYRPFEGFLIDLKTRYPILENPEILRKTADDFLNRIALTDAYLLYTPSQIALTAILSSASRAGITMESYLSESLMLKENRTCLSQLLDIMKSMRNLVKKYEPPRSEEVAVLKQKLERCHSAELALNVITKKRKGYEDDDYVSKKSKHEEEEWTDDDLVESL
Chain of CDK7/Cyclin H/MNAT1 (P50613 whole entry): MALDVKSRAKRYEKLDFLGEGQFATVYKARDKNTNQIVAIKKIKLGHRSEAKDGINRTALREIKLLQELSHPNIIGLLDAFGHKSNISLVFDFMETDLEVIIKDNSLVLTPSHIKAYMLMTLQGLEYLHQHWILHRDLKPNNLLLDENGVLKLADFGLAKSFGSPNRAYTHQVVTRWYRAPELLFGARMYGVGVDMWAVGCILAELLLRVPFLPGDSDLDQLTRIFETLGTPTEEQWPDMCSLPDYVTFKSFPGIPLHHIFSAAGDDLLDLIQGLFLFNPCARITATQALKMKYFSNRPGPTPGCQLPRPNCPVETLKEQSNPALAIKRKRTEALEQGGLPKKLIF
Chain of CDK7/Cyclin H/MNAT1 (P51948 whole entry, further chain): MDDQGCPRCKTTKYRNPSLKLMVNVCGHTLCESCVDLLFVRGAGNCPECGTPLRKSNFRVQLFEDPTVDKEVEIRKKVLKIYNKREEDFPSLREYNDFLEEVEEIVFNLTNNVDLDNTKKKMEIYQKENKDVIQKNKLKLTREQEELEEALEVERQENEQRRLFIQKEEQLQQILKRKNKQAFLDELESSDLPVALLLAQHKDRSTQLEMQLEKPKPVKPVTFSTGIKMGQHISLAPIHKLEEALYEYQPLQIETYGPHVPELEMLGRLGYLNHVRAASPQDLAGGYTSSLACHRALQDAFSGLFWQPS

CCOC(=O)C1=C(C)n2nc(Nc3ccccc3)c(C(N)=O)c2NC1c1ccc(F)cc1 (stereo unspecified)
IC50 [1]: 30 µM
IC50 [2]: 29.3 µM
IC50 [3]: 24.2 µM
IC50 [4]: 14.1 µM

CN(C)c1ccc(-c2cc(-c3c(O)c4ccccc4oc3=O)nc(N)c2C#N)cc1
Ki [5]: 0.00326 µM

O=C(NCCc1ccccc1)c1cnn2c(-c3ccc(Cl)cc3)nc(NCCc3ccccc3)nc12
inhibition at 10 µM [6]: 33.3%
IC50 [7]: 1.85 µM
inhibition [8]: 82%

O=c1[nH]cc(-c2ccccc2Cl)c2nccn12
IC50 [9]: 1.5 µM

CC(=O)N1N=C(c2c(O)c3ccccc3oc2=O)CC1c1ccccc1Cl (stereo unspecified)
Ki [10]: 0.00035 µM

CN(Cc1ccccc1)C(=O)CCc1c[nH]c2ccccc12
IC50 [11]: 14 µM
IC50 [12]: 10 µM
IC50 [13]: 16 µM
IC50 [14]: 11 µM
IC50 [15]: 25 µM

CN(C)C/C=C/C(=O)Nc1ccc(C(=O)N[C@@]2(C)CCC[C@@H](Nc3ncc(Cl)c(-c4c[nH]c5ccccc45)n3)C2)nc1
IC50 [16]: 0.02 µM

O=c1[nH]cc(-c2ccc(O)cc2)c2nccn12
IC50 [9]: 1.3 µM

O=c1[nH]cc(-c2ccccc2F)c2nccn12
IC50 [9]: 3.2 µM

COc1cccc2c1C(=O)c1c(O)c3c(c(O)c1C2=O)C[C@@](O)(C(=O)CO)C[C@@H]3O[C@H]1C[C@H](N)[C@H](O)[C@H](C)O1 [DOXORUBICIN]
IC50 [17]: 1.11 µM

CCOC(=O)C1=C(C)n2nc(Nc3ccccc3)c(C#N)c2NC1c1ccc(OC)cc1 (stereo unspecified)
IC50 [1]: 29.9 µM
IC50 [2]: 25.2 µM
IC50 [3]: 17.1 µM
IC50 [4]: 10.1 µM

CCC(CO)Nc1nc(NCc2ccccn2)c2ncn(CC)c2c1[N+](=O)[O-] (stereo unspecified)
IC50 [18]: 0.021 µM
IC50 [19]: 3.85 µM
IC50 [20]: 1.56 µM
IC50 [21]: 3.71 µM

COc1ccccc1/C=C/C(=C(C#N)C#N)c1ccc(NS(=O)(=O)c2ccc(C)cc2)cc1
IC50 [22]: 26.3 µM
IC50 [23]: 2.92 µM

O=C1CC(=O)N(c2ccc(S(=O)(=O)Nc3nccs3)cc2)C(=S)N1C(=O)c1ccccc1
IC50 [24]: 4.5 µM

CNc1nc(C)c(-c2nc(Nc3ccc(N4CCC(N(C)C)CC4)cn3)ncc2F)s1
GI50 [25]: 0.325 µM
GI50 [26]: 0.107 µM
AUC at 24 h [27]: 4.3 µM·h
AUC at 24 h [28]: 4.4 µM·h

Nc1ccc(-c2nc3ncccc3[nH]2)cc1
IC50 [29]: 0.71 µM
IC50 [30]: 3.06 µM

O=C(CCn1cc(COC(=O)c2c[nH]c3ccccc23)nn1)NC(CC(=O)c1cc2ccccc2oc1=O)c1ccccc1Cl (stereo unspecified)
IC50 [31]: 17.5 µM

O=C(CCCn1cc(CNC2CCCCC2)c(-c2ccccc2)n1)NO
IC50 [32]: 1.12 µM
IC50 [33]: 3.9 µM
IC50 [34]: 2.95 µM
IC50 [35]: 4.63 µM

O=C1CCC(N2C(=O)c3cccc(OCCCCCOc4ccc(CC(=O)Nc5cc(C6CCC6)[nH]n5)cc4)c3C2=O)C(=O)N1 (stereo unspecified)
Activity [36]: 56%
Activity [37]: 65%

O=C(c1ccccc1)N1C(=O)C(C2C(=O)N(C(=O)c3ccccc3)C(=S)N(c3ccc(F)cc3)C2=O)C(=O)N(c2ccc(F)cc2)C1=S (stereo unspecified)
IC50 [24]: 2.7 µM
IC50 [35]: 5.2 µM

C/C(=N\N=C\c1ccccc1)c1c(O)c2ccccc2oc1=O
Ki [5]: 0.00326 µM

Cc1cc(C)nc(NS(=O)(=O)c2ccc(N/C=C3\C(=O)NN=C3Nc3ccccc3)cc2)n1
inhibition [38]: 40%

Nc1c([N+](=O)[O-])cnc(NC2CCCCC2)c1[N+](=O)[O-]
IC50 at 2 days [39]: 86.7 µM
IC50 [40]: 2.89 µM
IC50 [41]: 3.19 µM
IC50 [42]: 1.8 µM

COc1ccc(C2CC(c3c(O)c4ccccc4oc3=O)=NN2c2ccccc2)cc1OC (stereo unspecified)
Ki [5]: 0.00326 µM

CCOC(=O)c1cnn2c(-c3ccc(Cl)cc3)nc(NCc3ccccc3)nc12
inhibition at 10 µM [6]: 41.8%
IC50 [7]: 2.09 µM
inhibition [8]: 82.4%

O=C1CC(=O)N(c2ccc(S(=O)(=O)Nc3ncccn3)cc2)C(=S)N1C(=O)c1ccccc1
IC50 [24]: 3.1 µM

O=C1NN=C(Nc2ccccc2)/C1=C/Nc1ccc(O)cc1
IC50 [4]: 23.3 µM
inhibition [38]: 60%

Nc1ccc(/N=N/c2ccc(-c3nc4ncccc4[nH]3)cc2)cc1
IC50 [29]: 2.84 µM
IC50 [30]: 1.83 µM

Cc1ccc(S(=O)(=O)Nc2ccc(-c3ccnc(Nc4ccc(S(=O)(=O)Nc5nccc(C)n5)cc4)c3C#N)cc2)cc1
IC50 [22]: 18.3 µM
IC50 [23]: 1.79 µM

O=c1[nH]cc(-c2cccc(F)c2F)c2nccn12
IC50 [9]: 4.8 µM

O=C1N=NC(=O)/C(=C\Nc2ccc(-c3nc4ncccc4[nH]3)cc2)C(=O)N1
IC50 [43]: 0.5 µM

O=C(CCCn1cc(CNC2CC2)c(-c2ccccc2)n1)NO
IC50 [32]: 2.96 µM
IC50 [33]: 2.53 µM
IC50 [34]: 2.76 µM
IC50 [35]: 3.7 µM

CC(=O)C(=NNc1ccc(-c2nc3ncccc3[nH]2)cc1)C(C)=O
IC50 [29]: 2.11 µM
IC50 [30]: 1.69 µM

CC(=O)N1C(=O)C(C(=O)c2ccc(F)cc2)C(=O)N(c2ccc(S(=O)(=O)Nc3nccs3)cc2)C1=S (stereo unspecified)
IC50 [24]: 3.2 µM
